# Measurements from US5631222A, “Endothelin-antagonizing peptide” (Kyowa Hakko Kogyo Co., Ltd., priority 1993, dated 1997).
# Positions of bridges follow the written chain, without caps; N, C: chain ends. Non-standard residues stand in square brackets, D forms with d. Residues, ends and D or L forms follow the SMILES beside them. NMeI = CC[C@H](C)[C@H](NC)C(=O)O; 2Thi = N[C@@H](Cc1cccs1)C(=O)O; Phg = N[C@H](C(=O)O)c1ccccc1; Nva = CCC[C@H](N)C(=O)O
# Target: T1, endothelin receptor (Bos taurus, UniProt P28088)
# T1 construct: the suspension was used as a membrane fraction liquid; from tissue; host or cells: bovine cerebellum membrane fraction
# T1 sequence (P28088 27-441): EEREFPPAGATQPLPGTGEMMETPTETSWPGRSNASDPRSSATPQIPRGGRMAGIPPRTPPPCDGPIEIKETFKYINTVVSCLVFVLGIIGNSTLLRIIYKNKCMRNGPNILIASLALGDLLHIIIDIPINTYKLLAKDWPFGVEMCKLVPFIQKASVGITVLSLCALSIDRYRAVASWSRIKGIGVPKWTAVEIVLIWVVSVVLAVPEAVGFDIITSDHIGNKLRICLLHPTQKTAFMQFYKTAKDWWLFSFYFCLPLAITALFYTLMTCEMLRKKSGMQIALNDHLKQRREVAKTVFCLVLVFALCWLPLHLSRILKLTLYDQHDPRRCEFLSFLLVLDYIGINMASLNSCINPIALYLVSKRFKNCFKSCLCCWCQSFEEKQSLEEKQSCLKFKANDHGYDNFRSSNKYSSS
# Experiment: Endothelin receptor-antagonizing activity: inhibition of 125I-endothelin-1 binding to bovine cerebellum membrane fraction
# Settings: 125I-Endothelin-1, bovine cerebellum membrane fraction, 25° C. for 2 hours; read-out: IC50: Concentration causing 50% inhibition of endothelin1 binding
# Procedure: Bovine cerebellum tissue was homogenized at 4° C. by using POLYTRON (type PT10/35, manufactured by Kinematic Gmbh Co.) in a buffer solution A (1 mM NaHCO3, 5 mM ethylenediaminetetraacetic acid, 5 μg/ml leupeptin, 5 μg/ml pepstatin A, 40 μM phenylmethylsulfonyl fluoride, pH 8.3).
# The obtained suspension was centrifuged for 10 minutes at 8,000 G and 4° C., and the resulting supernatant was centrifuged for 60 minutes at 40,000 G and 4° C. to obtain pellets. The obtained pellets were suspended in a buffer solution A and again centrifuged for 60 minutes at 40,000 G and 4° C. The resulting solid substance was prepared as a suspension containing 2 mg/ml of protein, and the suspension was used as a membrane fraction liquid. […] These mixtures were incubated at 25° C. for 2 hours, and then filtered with a GF/B glass filter (produced by Whatman Co.). […] The inhibition ratio against endothelin receptor binding activity was calculated according to the following equation:
# Inhibition ratio (%)=(C-A/C-B)×100
# B: Radioactivity in the presence of unlabelled endothelin-1
# C: Radioactivity in the absence of both of the compound shown in Table 2 and unlabelled endothelin-1
row,Molecule,IC50 [nM]
1,CC[C@H](C)[C@@H]1NC(=O)[C@H](Cc2ccccc2)NC(=O)CNC(=O)C[C@@H](C(=O)N[C@@H](Cc2c[nH]c3ccccc23)C(=O)N[C@H](C(=O)N[C@@H](Cc2ccc(O)cc2)C(=O)N[C@@H](Cc2ccccc2)C(=O)N[C@@H](C)C(=O)N[C@@H](Cc2c[nH]cn2)C(=O)N[C@@H](CC(C)C)C(=O)N[C@@H](CC(=O)O)C(=O)N[C@H](C(=O)N[C@H](C(=O)N[C@@H](Cc2c[nH]c3ccccc23)C(=O)O)[C@@H](C)CC)[C@@H](C)CC)C(C)C)NC(=O)[C@H](CC(N)=O)NC(=O)CNC(=O)[C@H](Cc2c[nH]c3ccccc23)NC(=O)CNC1=O [Compound 51] (GFIGWGNDWVYFAHLDIIW-OH; lactam N-8),3.3
2,"H-HGTAPDWVYFAHLDIIW-OH [Compound 9, HHisGlyThrAlaProAspTrpValTyrPheAlaHisLeuAspIleIleTrpOH]",0.088
3,"CC[C@H](C)[C@H](NC(=O)[C@H]([C@@H](C)CC)N(C)C(=O)[C@@H](NC(=O)[C@H](CC(C)C)NC(=O)[C@H](Cc1c[nH]cn1)NC(=O)[C@H](C)NC(=O)[C@H](Cc1ccccc1)NC(=O)[C@H](Cc1ccc(O)cc1)NC(=O)[C@@H](NC(=O)[C@H](Cc1c[nH]c2ccccc12)NC(=O)[C@H](CC(=O)O)NC(=O)[C@@H]1CCCN1C(=O)[C@H](C)NC(=O)[C@@H](NC(=O)CNC(=O)[C@H](Cc1c[nH]cn1)NC(=O)[C@H](Cc1c[nH]c2ccccc12)NC(=O)[C@H](CC(N)=O)NC(=O)CN)[C@@H](C)O)C(C)C)[C@@H](C)O)C(=O)N[C@@H](Cc1c[nH]c2ccccc12)C(=O)O [Compound 24, HGlyAsnTrpHisGlyThrAlaProAspTrpValTyrPheAlaHisLeuThrMeIleIleTrpOH] (H-GNWHGTAPDWVYFAHLT[NMeI]IW-OH)",50
4,H-GNWHGTAPDWPYFAHLDIIW-OH [Compound 47],4.2
5,H-GNWHGTAADWVYFAHLSMIW-OH [Compound 46],0.8
6,"CCC[C@H](NC(=O)[C@@H](Cc1c[nH]c2ccccc12)NC(=O)[C@H](C)NC(=O)[C@H](Cc1ccccc1)NC(=O)[C@H](Cc1ccc(O)cc1)NC(=O)[C@@H](NC(=O)[C@H](Cc1c[nH]c2ccccc12)NC(=O)[C@H](CC(=O)O)NC(=O)[C@@H]1CCCN1C(=O)[C@H](C)NC(=O)[C@@H](NC(=O)CNC(=O)[C@H](Cc1c[nH]cn1)NC(=O)[C@H](Cc1c[nH]c2ccccc12)NC(=O)[C@H](CC(N)=O)NC(=O)CN)[C@@H](C)O)C(C)C)C(=O)N[C@@H](CCC(=O)O)C(=O)N[C@H](C(=O)N[C@@H](C(=O)N[C@@H](Cc1c[nH]c2ccccc12)C(=O)O)[C@H](C)CC)[C@@H](C)CC [Compound 44, HGlyAsnTrpHisGlyThrAlaProAspTrpValTyrPheAlaD-TrpNvaGluIleD-IleTrpOH] (H-GNWHGTAPDWVYFA[dW][Nva]EI[dI]W-OH)",290
7,H-GNWHGTAPDWVYFAHLTLIW-OH [Compound 13],2.9
8,"H-VYFSHLDIIW-OH [Compound w, H-Val-Tyr-Phe-Ser-His-Leu-Asp-Ile-Ile-Trp-OH, reference compound]",> 1000
9,"H-GNWHGTAPDAVYFAHLDIIW-OH [Compound 4, HGlyAsnTrPHisGlyThrAlaProAspAlaValTyrPheAlaHisLeuAspIleIleTrpOH]",0.22
10,"CCC[C@H](NC(=O)[C@H](Cc1c[nH]cn1)NC(=O)[C@H](C)NC(=O)[C@H](Cc1ccccc1)NC(=O)[C@H](Cc1ccc(O)cc1)NC(=O)[C@@H](NC(=O)[C@H](Cc1c[nH]c2ccccc12)NC(=O)[C@H](CC(=O)O)NC(=O)[C@@H]1CCCN1C(=O)[C@H](C)NC(=O)[C@@H](NC(=O)CNC(=O)[C@H](Cc1c[nH]cn1)NC(=O)[C@H](Cc1c[nH]c2ccccc12)NC(=O)[C@H](CC(N)=O)NC(=O)CN)[C@@H](C)O)C(C)C)C(=O)N[C@H](C(=O)N[C@@H](Cc1cccs1)C(=O)N[C@H](C(=O)N[C@@H](Cc1c[nH]c2ccccc12)C(=O)O)[C@@H](C)CC)[C@@H](C)O [Compound 29, HGlyAsnTrpHisGlyThrAlaProAspTrpValTyrPheAlaHisNvaThrThiIleTrpOH] (H-GNWHGTAPDWVYFAH[Nva]T[2Thi]IW-OH)",0.37
11,H-GNWHGTAPDWVYFAHLTYIW-OH [Compound 19],1.2
12,CC[C@H](C)[C@H](NC(=O)[C@H](CC(C)C)NC(=O)[C@@H](NC(=O)[C@H](CC(C)C)NC(=O)[C@H](Cc1c[nH]cn1)NC(=O)[C@H](C)NC(=O)[C@H](Cc1ccccc1)NC(=O)[C@H](Cc1ccc(O)cc1)NC(=O)[C@@H](NC(=O)[C@H](Cc1c[nH]c2ccccc12)NC(=O)[C@@H]1CSSC[C@H](N)C(=O)N[C@@H](CC(N)=O)C(=O)N[C@@H](Cc2c[nH]c3ccccc23)C(=O)N[C@@H](Cc2c[nH]cn2)C(=O)NCC(=O)N[C@@H]([C@@H](C)O)C(=O)N[C@@H](C)C(=O)N2CCC[C@H]2C(=O)N1)C(C)C)[C@@H](C)O)C(=O)N[C@@H](Cc1c[nH]c2ccccc12)C(=O)O [Compound 37] (H-CNWHGTAPCWVYFAHLTLIW-OH; disulfide 1-9),8.7
13,"H-GNWHGTAPDWYFAHLDIIW-OH [Compound 10, HGlyAsnTrpHisGlyThrAlaProAspTrpTyrPheAlaHisLeuAspIleIleTrpOH]",0.57
14,CC[C@H](C)[C@H](NC(=O)[C@H](CC(=O)O)NC(=O)[C@H](CC(C)C)NC(=O)[C@H](Cc1c[nH]cn1)NC(=O)[C@H](C)NC(=O)[C@H](Cc1ccccc1)NC(=O)[C@H](Cc1ccc(O)cc1)NC(=O)[C@@H](NC(=O)[C@H](Cc1c[nH]c2ccccc12)NC(=O)[C@@H]1CSSC[C@H](N)C(=O)N[C@@H](CC(N)=O)C(=O)N[C@@H](Cc2c[nH]c3ccccc23)C(=O)N[C@@H](Cc2c[nH]cn2)C(=O)NCC(=O)N[C@@H]([C@@H](C)O)C(=O)N[C@@H](C)C(=O)N2CCC[C@H]2C(=O)N1)C(C)C)C(=O)N[C@H](C(=O)N[C@@H](Cc1c[nH]c2ccccc12)C(=O)O)[C@@H](C)CC [Compound 33] (H-CNWHGTAPCWVYFAHLDIIW-OH; disulfide 1-9),0.16
15,"CC[C@H](C)[C@H](NC(=O)[C@H](Cc1cccs1)NC(=O)[C@@H](NC(=O)[C@H](CC(C)C)NC(=O)[C@H](Cc1c[nH]cn1)NC(=O)[C@@H](C)NC(=O)[C@H](Cc1ccccc1)NC(=O)[C@H](Cc1ccc(O)cc1)NC(=O)[C@@H](NC(=O)[C@H](Cc1c[nH]c2ccccc12)NC(=O)[C@H](CC(=O)O)NC(=O)[C@@H]1CCCN1C(=O)[C@H](C)NC(=O)[C@@H](NC(=O)CNC(=O)[C@H](Cc1c[nH]cn1)NC(=O)[C@H](Cc1c[nH]c2ccccc12)NC(=O)[C@H](CC(N)=O)NC(=O)CN)[C@@H](C)O)C(C)C)[C@@H](C)O)C(=O)N[C@@H](Cc1c[nH]c2ccccc12)C(=O)O [Compound 27, HGlyAsnTrpHisGlyThrAlaProAspTrpValTyrPheD-AlaHisLeuThrThiIleTrpOH] (H-GNWHGTAPDWVYF[dA]HLT[2Thi]IW-OH)",4.9
16,"CC[C@H](C)[C@H](NC(=O)[C@@H](NC(=O)[C@@H](NC(=O)[C@H](CC(C)C)NC(=O)[C@H](Cc1c[nH]cn1)NC(=O)[C@H](C)NC(=O)[C@H](Cc1ccccc1)NC(=O)[C@H](Cc1ccc(O)cc1)NC(=O)[C@@H](NC(=O)[C@H](Cc1c[nH]c2ccccc12)NC(=O)[C@H](CC(=O)O)NC(=O)[C@@H]1CCCN1C(=O)[C@H](C)NC(=O)[C@@H](NC(=O)CNC(=O)[C@H](Cc1c[nH]cn1)NC(=O)[C@H](Cc1c[nH]c2ccccc12)NC(=O)[C@H](CC(N)=O)NC(=O)CN)[C@@H](C)O)C(C)C)[C@@H](C)O)c1ccccc1)C(=O)N[C@@H](Cc1c[nH]c2ccccc12)C(=O)O [Compound 25, HGlyAsnTrpHisGlyThrAlaProAspTrpValTyrPheAlaHisLeuThrPhgIleTrpOH] (H-GNWHGTAPDWVYFAHLT[Phg]IW-OH)",0.58
17,CC[C@H](C)[C@H](NC(=O)[C@H](CC(=O)O)NC(=O)[C@H](CC(C)C)NC(=O)[C@H](Cc1c[nH]cn1)NC(=O)[C@H](C)NC(=O)[C@H](Cc1ccccc1)NC(=O)[C@H](Cc1ccc(O)cc1)NC(=O)[C@@H](NC(=O)[C@H](Cc1c[nH]c2ccccc12)NC(=O)[C@@H]1CC(=O)NCC(=O)N[C@@H](Cc2ccc(O)cc2)C(=O)N2CCC[C@H]2C(=O)N[C@@H](Cc2c[nH]c3ccccc23)C(=O)N[C@@H](Cc2c[nH]c3ccccc23)C(=O)N[C@@H](CC(N)=O)C(=O)N[C@@H](Cc2ccc(O)cc2)C(=O)N[C@@H](CCCNC(=N)N)C(=O)N1)C(C)C)C(=O)N[C@H](C(=O)N[C@@H](Cc1c[nH]c2ccccc12)C(=O)O)[C@@H](C)CC [Compound 52] (GYPWWNYRDWVYFAHLDIIW-OH; lactam N-9),19
18,H-GNWHGTAPDWVYFAHLTMIW-OH [Compound 18],1.7
19,H-GNWHGTAPDWVYFAHLDLIW-OH [Compound 16],5.4
